Experimental data from patent US11191773B2, “Methods of treatment for bacterial infections” (President and Fellows of Harvard College, priority 2017, dated 2021).
Read-outs that look alike come from different tables or passages of the source.

How the values were obtained:
[1] = test system: Acinetobacter baumannii Novo^R; assay: Minimal inhibitory concentrations, checkerboard microdilution; assay type: cell-based; settings: Acinetobacter baumannii, 24 h
Procedure: (§1) Checkerboard microdilution assays between polymyxin B and novobiocin were performed in wild-type strains (unless otherwise noted) grown at 37° C. for 24 h. Checkerboard data (FIG. 1A-1F) are representative of at least three biological replicates. The following strains were tested: A) Wild-type Escherichia coli, ATCC 25922; B) Wild-type Enterobacter cloacae; ATCC 13047) Wild-type Klebsiella pneumoniae, ATCC 700721; D) Wild-type Pseudomonas aeruginosa, ATCC 15692 (PAO1); E) Wild-type Acinetobacter baumannii, ATCC 19606; F) novobiocin-resistant Acinetobacter baumannii, ATCC 19606 gyrB(R150C).

[2] = test system: Escherichia coli; assay: as above; assay type: cell-based; settings: Escherichia coli; grown at 37° C. for 24 h; read-out: MIC
Procedure: as §1

[3] = test system: Klebsiella pneumoniae; assay: as above; assay type: cell-based; settings: Klebsiella pneumoniae; grown at 37° C. for 24 h; read-out: MIC
Procedure: as §1

[4] = test system: Pseudomonas aeruginosa; assay: as above; assay type: cell-based; settings: Pseudomonas aeruginosa; grown at 37° C. for 24 h; read-out: MIC
Procedure: as §1

[5] = test system: polymyxin-resistant K. pneumoniae (clinical isolate from Brigham and Women's Hospital); assay type: cell-based; settings: 37° C. for 24 h
Procedure: The effect of novobiocin/polymyxin combination was further assessed in polymyxin-resistant strains using checkerboard microdilution assays. In these assays, polymyxin-resistant strains (E. coli (clinical isolate from Brigham and Women's Hospital); A. baumannii (ATCC: 19606) mutant that is novobiocin and polymyxin-resistant; and K. pneumoniae (clinical isolate from Brigham and Women's Hospital)) were grown at 37° C. for 24 h.

[6] = test system: lptB1(G33C); assay: Disk diffusion assay; assay type: cell-based, E. coli; settings: Escherichia coli, read-out: Zone of inhibition, diameter of the zone of total growth inhibition
Procedure: (§2) Zones of inhibition were measured in disk diffusion assays of wild type, IptB1, and suppressors IptB1(R144H) and IptB1(G33C) pictured in FIG. 6B. Assays were conducted with 6-mm disks. Numbers outside of parentheses report the diameter of the zone of total growth inhibition (in mm), while numbers inside parenthesis report the diameter of the zone of partial growth inhibition.
(§3) Disk diffusion assays were performed as described in Sherman et al., Proc. Natl. Acad. Sci. USA 2014, 111, 4982-4987. Premade Sensi-Disc (BD-Beckton, Dickinson and Company) were used for bacitracin 10IU, erythromycin 15 μg, novobiocin 30 μg, and rifampin 5 μg.

[7] = test system: lptB1(R144H); assay: Disk diffusion assay; assay type: cell-based, E. coli; settings: Escherichia coli, read-out: Zone of inhibition, diameter of the zone of total growth inhibition
Procedure: as §2, §3

[8] = test system: lptB1; assay: Disk diffusion assay; assay type: cell-based, E. coli; settings: Escherichia coli
Procedure: as §2, §3

[9] = test system: wild type; assay: Disk diffusion assay; assay type: cell-based, E. coli; settings: Escherichia coli; 6-mm disks; bacitracin 10IU, erythromycin 15 μg, novobiocin 30 μg, rifampin 5 μg, nalidixic acid 5 μg; read-out: Zone of inhibition, diameter of the zone of total growth inhibition
Procedure: as §2, §3

[10] = biological target: T1, wild-type LptB2FGC complexes (Escherichia coli, UniProt P0A9V1); assay: LPS-release assay, right-side-out vesicles to LptA*; assay type: biochemical, E. coli
T1 construct: made in house; host or cells: right-side-out membrane vesicles from E. coli BL-21(λDE3) overexpressing the complex
Procedure: FIG. 9A is a schematic drawing showing the assay to monitor LPS release from right-side-out vesicles to LptA* (LptA(I36pBPA)). Vesicles containing overexpressed wild-type or mutant LptB2FGC complexes were incubated with LptA* and ATP at 30° C. to initiate LPS extraction and transport from the vesicles to LptA*. Samples were taken at different time points and UV-irradiated to crosslink LPS to LptA*, and accumulation of LPS-LptA* adducts was detected using LPS immunoblots.
FIG. 9D is a picture of an immunoblot showing that novobiocin and derivatives with impaired gyrase activities stimulate LPS transport in E. coli in vitro. […] Samples were UV irradiated at 365 nm for 5 minutes and then quenched with 2X SDS/5% β-mercaptoethanol. Samples were immunoblotted.
The assay detects via immunoblot LPS that becomes crosslinked to LptA* in the presence of UV light. […] By comparison, vesicles containing LptB2LptFG(ch)C complexes released less LPS over time (FIG. 9B, lanes 5-8). These experiments provide direct evidence that the amino acid changes in LptFG(ch), which were known to affect complex formation with LptB, impair LPS release. […] These compounds also increase LPS release from vesicles containing wild-type LptB2FGC complexes or LptB(R91 S)2FGC complexes (FIG. 17).
Samples were UV irradiated at 365 nm for 5 minutes and then quenched with 2X SDS/5% β-mercaptoethanol. Samples were immunoblotted.
The in vitro LPS-transport experiments in FIGS. 9B, 9C, and 17 were set-up as described in (Okuda et al. Science 2012, 338, 1214-1217) with some modifications. RSO-vesicles (50 μg total protein) were diluted into 100 μL reaction buffer (10% v/v glycerol, 20 mM Tris (pH 8.0), 150 mM NaCl, 5 mM sodium-ATP, 5 mM MgCl2), and incubated on ice with novobiocin, 1-adamantyl-novobiocin, or no compound for 15 minutes (50× compound stocks in water were used for each concentration). […]
Immunoblotting was used to assess LptA*-LPS levels in each sample. […] LptA levels were assessed similarly, using rabbit anti-LptA antiserum followed by donkey anti-rabbit horseradish peroxidase conjugate (GE Amersham). […]

T1 sequence (P0AF98 whole entry): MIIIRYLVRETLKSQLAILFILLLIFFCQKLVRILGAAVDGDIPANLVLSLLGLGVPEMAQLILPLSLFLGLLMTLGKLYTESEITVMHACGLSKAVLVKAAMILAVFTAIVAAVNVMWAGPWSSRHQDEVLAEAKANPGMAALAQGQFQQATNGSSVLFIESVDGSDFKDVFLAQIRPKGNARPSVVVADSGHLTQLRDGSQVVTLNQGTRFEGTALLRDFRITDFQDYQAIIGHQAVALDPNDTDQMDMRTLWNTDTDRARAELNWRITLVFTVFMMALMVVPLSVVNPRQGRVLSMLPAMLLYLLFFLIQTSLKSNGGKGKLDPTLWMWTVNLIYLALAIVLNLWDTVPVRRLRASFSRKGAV
T1 sequence (P0ADV9 whole entry, further chain): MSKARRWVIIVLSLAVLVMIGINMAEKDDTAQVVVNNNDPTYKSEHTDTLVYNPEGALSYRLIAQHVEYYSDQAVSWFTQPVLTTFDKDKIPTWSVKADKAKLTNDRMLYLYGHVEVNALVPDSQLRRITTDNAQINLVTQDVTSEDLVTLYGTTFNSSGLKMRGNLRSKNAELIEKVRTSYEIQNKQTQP
T1 sequence (P0ADC6 whole entry, further chain): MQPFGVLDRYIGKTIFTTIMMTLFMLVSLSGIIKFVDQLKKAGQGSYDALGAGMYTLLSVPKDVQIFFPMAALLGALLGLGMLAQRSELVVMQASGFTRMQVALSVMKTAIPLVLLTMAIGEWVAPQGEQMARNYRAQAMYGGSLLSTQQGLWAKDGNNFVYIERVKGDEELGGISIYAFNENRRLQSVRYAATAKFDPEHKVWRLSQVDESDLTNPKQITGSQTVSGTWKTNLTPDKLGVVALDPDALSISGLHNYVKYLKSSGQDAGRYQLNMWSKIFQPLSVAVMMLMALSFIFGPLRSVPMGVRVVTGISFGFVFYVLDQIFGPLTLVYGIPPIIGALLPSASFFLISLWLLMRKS
T1 sequence (P0A9V1 2-241): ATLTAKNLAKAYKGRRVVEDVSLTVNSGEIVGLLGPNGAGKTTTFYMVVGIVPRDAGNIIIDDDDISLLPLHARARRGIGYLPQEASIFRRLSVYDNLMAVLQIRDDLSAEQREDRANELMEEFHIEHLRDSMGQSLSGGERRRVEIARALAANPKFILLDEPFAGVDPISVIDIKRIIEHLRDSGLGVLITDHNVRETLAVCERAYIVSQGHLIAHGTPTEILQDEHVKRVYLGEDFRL

SMILES: CO[C@@H]1[C@@H](OC(N)=O)[C@@H](O)[C@H](Oc2ccc3c(O)c(NC(=O)c4ccc(O)c(CC=C(C)C)c4)c(=O)oc3c2C)OC1(C)C [Novobiocin, novobiocin]
- MIC [1]: 190 µg/mL
- MIC [2]: 20 µg/mL
- MIC [3]: 270 µg/mL
- MIC [4]: > 450 µg/mL
- synergy with polymyxin B [5]: synergizes with polymyxin B
- zone of inhibition at 30 µg/disc [6]: < 6 mm
- zone of inhibition at 30 µg/disc [7]: < 6 mm
- zone of inhibition at 30 µg/disc ([8]; read-out: Zone of inhibition, diameter of the zone of partial growth inhibition (in parentheses)): 24 mm
- zone of inhibition at 30 µg/disc ([8]; read-out: Zone of inhibition, diameter of the zone of total growth inhibition): 14 mm
- zone of inhibition at 30 µg/disc [9]: < 6 mm
- LPS transport in vitro ([10]; overexpressed LptB2FGC vesicles, 30° C. for 1 hour (FIG. 9D, 9E)): stimulate LPS transport in vitro
- LPS release from vesicles to LptA* ([10]; wild-type LptB2FGC or LptB(R91 S)2FGC vesicles (FIG. 17)): stimulates LPS release
